Experiments:
[1] = system: H2228 (EML4-ALK) cells; experiment: CCK8 antiproliferative assay, H2228 cells; format: cell-based, human; conditions: Homo sapiens, NCI-H2228, 72 h, CCK8 assay, 72 h, H2228 (EML4-ALK); read-out: IC50 H2228
Text: The human cancer cell lines (H1975, H2228) used in this study were purchased from the Guangzhou ginny ou biotechnology Co., Ltd. (Guangzhou, China). The human cancer cell lines (NCI-H522) used in this study were purchased from the Shenzhen Haodi Huatuo Biotechnology Co., LTD (Shenzhen, China). The human cancer cell lines (LOVO, HLF, BJ, LO2) used in this study were purchased from the Laboratory Animal Service Center at Sun Yat-sen University (Guangzhou, China). […] Cell lines LOVO, HLF, BJ, and LO2 were cultivated in DMEM containing 10% (v/v) heat-inactivated fetal bovine serum (FBS), 100 units/mL penicillin, and 100 μg/mL streptomycin.

[2] = system: LO2 (human normal liver cells); experiment: Cytotoxicity test on nontumorigenic cells, LO2; format: cell-based
Text: (§1) It is critical to evaluate the balance between the safety and efficacy of drugs for the development of new drugs; thus, we then conducted a cytotoxicity test on […] types of nontumorigenic cell lines from different origins, including LO2 (human normal liver cells), HK2 (human kidney proximal convoluted tubule epithelial cells), HLF (human embryonic lung fibroblast), 293A (human embryonic kidney cells), and HUVEC (human umbilical vein endothelial cells). […] In addition, we evaluated the compound’s safety in vivo by performing acute toxicity tests in mice, and 9j was injected intravenously at concentrations of 100 mg/kg, 150 mg/kg, and 300 mg/kg.
(§2) A total of 7000 cells per well were seeded in a 96-well plate with at least three technical replicates; then, exposed to different concentrations (10, 5, 1, 0.1, 0.05, 0.01 uM) of the test compounds for 72 h. After the treatment, CCK8 (Sigma, St. Louis, MO, USA) was added to each well under sterile conditions (to a final concentration of 10% of the total volume) and the plates were incubated for 2–4 h at 37 °C. Absorbance was measured at 450 nm in a microplate reader.

[3] = system: HK2 (human kidney proximal convoluted tubule epithelial cells); experiment: Cytotoxicity test on nontumorigenic cells, HK2; format: cell-based
Text: as §1, §2

[4] = system: HLF (human embryonic lung fibroblast); experiment: Cytotoxicity test on nontumorigenic cells, HLF; format: cell-based
Text: as §1, §2

[5] = system: 293A (human embryonic kidney cells); experiment: Cytotoxicity test on nontumorigenic cells, 293A; format: cell-based
Text: as §1, §2

[6] = system: HUVEC (human umbilical vein endothelial cells); experiment: Cytotoxicity test on nontumorigenic cells, HUVEC; format: cell-based
Text: as §1, §2

[7] = system: nontumorigenic cell lines
Text: as §1, §2

[8] = biological target: EGFR wild-type kinase (Homo sapiens, UniProt P00533); experiment: Kinase ELISA assay, wild-type EGFR; format: biochemical
Description: (§3) Four kinases (EGFR, EGFR^L858R/T790M, ALK, and EML4-ALK) were tested using an ELISA assay. […] There was no effect on the wild-type EGFR or ALK kinases triggered by the compound. Consequently, the selection of the compound was good as both compounds balanced IC50 against EGFR and ALK, respectively. […] Following that, fluorescence assays were used to measure the phosphorylation of the EGFR and ALK protein affect with compound 9j at the cellular level. […] Next, WB assay was used to test the protein expression of H1975 and H2228 cells at the concentration of 5, 10, and 100 nM.

[9] = biological target: ALK wild-type kinase (Homo sapiens, UniProt Q9UM73); experiment: Kinase ELISA assay, wild-type ALK; format: biochemical
Description: as §3

[10] = system: H1975 cells; experiment: Apoptosis assay by flow cytometry (annexin V / PI); format: cell-based, human; conditions: 48 h, control 6.07%
Text: The death of cells occurs by apoptosis, and the uncontrolled division and multiplication of cells causes cancer. Inhibiting cellular apoptosis is primarily responsible for cancer cell survival, since cellular apoptosis is negatively correlated with cell growth. We then verified the antitumor effect of compound 9j by inducing apoptosis through flow cytometry.
To assay the number of apoptotic cells, cells were stained with allo-phycocyanin–annexin V (#550475, BD Pharmingen, Becton Drive Franklin Lakes, NJ, USA) for 15 min; then, they were washed and resuspended in 1:500 propidium iodide (#81845, Sigma-Aldrich, St. Louis, Mo, USA) viability marker, and acquired on LSRFortessa. Data were analyzed with FlowJo software. Annexin V+ cells were considered as apoptotic cells.

[11] = system: mice; experiment: Acute toxicity test in mice; conditions: injected intravenously, 100, 150 and 300 mg/kg (Figure S1)
Text: as §1

[12] = system: p-EGFR; experiment: Western blot, p-EGFR; format: cell-based, human; conditions: WB, 5, 10 and 100 nM, 3 h treatment
Description: as §3
(§4) H1975 (H2228) cells seeded in 60 mm dishes at a density of 5 × 10^5 cells/well were incubated with or without compound 9j (0, 5, 10, 100 nM) for 2–4 h. After treatment, cells were stained as previously described.

[13] = system: p-AKT; experiment: Western blot, p-AKT; format: cell-based, human; conditions: WB, 5, 10 and 100 nM, 3 h treatment
Description: as §3, §4

[14] = system: H1975 cells; experiment: Wound-healing (cell scratching) assay; format: cell-based, human; conditions: H1975, 48 h; PBS group about 70%
Description: (§5) The migration and invasion of tumor cells directly contribute to metastasis. Metastasis is the leading cause of death in cancer patients. To determine the ability of 9j to inhibit tumor cell migration, the cell scratching assay was performed. Following scratching, phase contrast pictures were taken of the scratched and healing cell monolayers.
H1975 cells were plated in a six-well culture dish at 5 × 10^4 cells/dish and grown for 24 h, and […]. The medium was then replaced with a serum-free 1640 medium and treated with compound 9j at the indicated concentrations for another 24 h or 48 h. After the samples were washed with phosphate buffer solution (PBS), the cell images were immediately detected by a Zeiss LSM 570 laser scanning confocal microscope (Carl Zeiss, Jena, Germany).

[15] = system: H1975 cells; experiment: Transwell migration and invasion assay; format: cell-based, human
Description: as §5
Migration assay was performed using an 8 um pore Boyden chamber (24-well, #353097, Corning, NY, USA), and incubated in the presence or absence of compound 9j. A total of 50,000 cells were seeded in serum-free medium in the top chamber and allowed to migrate for 48 h toward the bottom chamber containing 10% fetal bovine serum medium. Cells were fixed and permeabilized with cold 70% ethanol and methanol, and stained with 0.4% crystal violet. The average number of migrating cells was evaluated from at least four independent microscope fields.

Chain of EGFR wild-type kinase (P00533 25-1210): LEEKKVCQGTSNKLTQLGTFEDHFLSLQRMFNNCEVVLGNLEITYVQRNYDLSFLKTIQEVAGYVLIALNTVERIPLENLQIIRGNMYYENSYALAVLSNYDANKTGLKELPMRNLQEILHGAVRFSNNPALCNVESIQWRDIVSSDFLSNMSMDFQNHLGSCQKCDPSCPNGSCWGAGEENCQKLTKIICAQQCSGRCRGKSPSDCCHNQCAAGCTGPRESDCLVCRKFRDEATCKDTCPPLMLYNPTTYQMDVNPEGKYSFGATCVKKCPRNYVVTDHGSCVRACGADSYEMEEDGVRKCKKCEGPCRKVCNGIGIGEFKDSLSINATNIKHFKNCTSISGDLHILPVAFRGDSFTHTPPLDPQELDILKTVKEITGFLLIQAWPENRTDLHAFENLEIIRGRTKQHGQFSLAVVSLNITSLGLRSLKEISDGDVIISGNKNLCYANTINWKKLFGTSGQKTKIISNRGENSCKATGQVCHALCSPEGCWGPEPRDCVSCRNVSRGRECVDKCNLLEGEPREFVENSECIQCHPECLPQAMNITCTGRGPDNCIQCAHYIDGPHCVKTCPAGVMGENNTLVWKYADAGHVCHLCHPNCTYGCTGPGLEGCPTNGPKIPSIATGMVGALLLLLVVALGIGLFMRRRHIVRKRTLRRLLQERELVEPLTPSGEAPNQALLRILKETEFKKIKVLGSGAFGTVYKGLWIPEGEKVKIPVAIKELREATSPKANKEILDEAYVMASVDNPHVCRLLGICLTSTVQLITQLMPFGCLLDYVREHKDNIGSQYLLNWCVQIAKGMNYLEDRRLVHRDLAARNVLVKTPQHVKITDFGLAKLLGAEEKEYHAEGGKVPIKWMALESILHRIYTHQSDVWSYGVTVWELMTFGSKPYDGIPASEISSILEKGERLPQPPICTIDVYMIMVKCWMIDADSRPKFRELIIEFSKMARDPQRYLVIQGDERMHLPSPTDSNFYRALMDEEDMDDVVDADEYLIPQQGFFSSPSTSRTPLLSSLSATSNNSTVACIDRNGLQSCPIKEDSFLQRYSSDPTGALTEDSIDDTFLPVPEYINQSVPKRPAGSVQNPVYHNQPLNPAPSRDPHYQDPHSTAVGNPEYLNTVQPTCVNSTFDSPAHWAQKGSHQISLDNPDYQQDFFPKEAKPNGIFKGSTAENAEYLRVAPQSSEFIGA
Chain of ALK wild-type kinase (Q9UM73 19-1620): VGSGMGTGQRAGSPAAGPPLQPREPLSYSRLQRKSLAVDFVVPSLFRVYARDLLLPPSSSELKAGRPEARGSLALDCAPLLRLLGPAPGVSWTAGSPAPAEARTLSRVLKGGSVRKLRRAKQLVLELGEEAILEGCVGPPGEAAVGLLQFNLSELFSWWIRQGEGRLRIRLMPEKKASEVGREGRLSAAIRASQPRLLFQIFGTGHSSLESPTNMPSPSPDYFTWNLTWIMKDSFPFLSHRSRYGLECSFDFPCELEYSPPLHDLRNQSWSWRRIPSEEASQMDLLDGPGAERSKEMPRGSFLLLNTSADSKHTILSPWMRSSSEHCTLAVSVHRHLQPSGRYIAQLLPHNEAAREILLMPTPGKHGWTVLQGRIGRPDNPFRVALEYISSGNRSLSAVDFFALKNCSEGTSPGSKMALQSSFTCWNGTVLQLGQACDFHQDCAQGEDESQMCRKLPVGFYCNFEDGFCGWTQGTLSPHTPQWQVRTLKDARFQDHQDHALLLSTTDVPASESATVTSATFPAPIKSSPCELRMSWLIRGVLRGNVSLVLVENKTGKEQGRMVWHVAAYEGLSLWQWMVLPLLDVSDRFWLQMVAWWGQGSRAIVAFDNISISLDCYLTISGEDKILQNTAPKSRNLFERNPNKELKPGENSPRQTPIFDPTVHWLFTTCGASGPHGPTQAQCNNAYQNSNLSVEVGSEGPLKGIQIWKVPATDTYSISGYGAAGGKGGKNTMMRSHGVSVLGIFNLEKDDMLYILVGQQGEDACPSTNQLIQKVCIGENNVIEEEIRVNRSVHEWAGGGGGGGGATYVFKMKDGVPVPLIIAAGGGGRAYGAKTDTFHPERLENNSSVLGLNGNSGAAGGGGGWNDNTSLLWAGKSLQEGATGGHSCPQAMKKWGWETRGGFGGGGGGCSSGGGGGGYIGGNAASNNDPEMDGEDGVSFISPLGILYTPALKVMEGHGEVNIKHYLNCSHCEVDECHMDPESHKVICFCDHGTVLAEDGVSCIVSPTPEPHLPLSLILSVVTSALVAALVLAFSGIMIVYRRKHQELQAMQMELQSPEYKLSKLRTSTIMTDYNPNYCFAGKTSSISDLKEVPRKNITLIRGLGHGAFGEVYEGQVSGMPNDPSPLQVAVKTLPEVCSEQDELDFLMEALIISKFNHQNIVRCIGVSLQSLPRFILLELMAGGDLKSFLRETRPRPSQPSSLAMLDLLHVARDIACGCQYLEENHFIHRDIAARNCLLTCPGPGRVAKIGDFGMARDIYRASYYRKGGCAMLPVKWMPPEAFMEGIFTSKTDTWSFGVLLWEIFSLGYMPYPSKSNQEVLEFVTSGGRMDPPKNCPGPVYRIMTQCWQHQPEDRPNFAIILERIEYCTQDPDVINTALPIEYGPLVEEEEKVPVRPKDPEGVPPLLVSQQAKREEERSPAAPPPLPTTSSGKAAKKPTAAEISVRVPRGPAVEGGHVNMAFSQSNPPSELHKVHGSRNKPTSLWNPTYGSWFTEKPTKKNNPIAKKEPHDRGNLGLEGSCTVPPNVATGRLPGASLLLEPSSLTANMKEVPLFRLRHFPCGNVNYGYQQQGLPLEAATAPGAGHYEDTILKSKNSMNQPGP

`C=CC(=O)Nc1cc(Nc2ncc(Cl)c(Nc3ccc(Cl)cc3[S+]([O-])C(C)C)n2)c(OC)cc1C1CCN(C)CC1` (stereo not shown) [9j, N-(5-((5-Chloro-4-((4-chloro-2-(isopropylsulfinyl)phenyl)amino)pyrimidin-2-yl)amino)-4-methoxy-2-(1-methylpiperidin-4-yl)phenyl)acrylamide] was tested, and the IC50 [1] was 0.0818 ± 0.02 µM, the IC50 ([2]; Homo sapiens, LO2, mean ± SE, read-out: Toxicity to normal cells, IC50 LO2) was 23.96 ± 0.03 µM and the “Selectivity Ratio (IC50 human normal cells)/(IC50 H1975), LO2” value ([2]; LO2 vs H1975) was 306.1. For the same compound, the “Selectivity Ratio (IC50 human normal cells)/(IC50 H1975), HK2” value ([3]; HK2 vs H1975) was 329.6, the IC50 ([3]; Homo sapiens, Epithelial cell, HK2, mean ± SE, read-out: Toxicity to normal cells, IC50 HK2) was 25.71 ± 0.08 µM and the “Selectivity Ratio (IC50 human normal cells)/(IC50 H1975), HLF” value ([4]; HLF vs H1975) was 357.3. For the same compound, the IC50 ([4]; Homo sapiens, Fibroblast, HLF, mean ± SE, read-out: Toxicity to normal cells, IC50 HLF) was 27.87 ± 0.01 µM, the “Selectivity Ratio (IC50 human normal cells)/(IC50 H1975), 293A” value ([5]; 293A vs H1975) was 255.5 and the IC50 ([5]; Homo sapiens, 293A, mean ± SE, read-out: Toxicity to normal cells, IC50 293A) was 20 ± 0.05 µM. The “Selectivity Ratio (IC50 human normal cells)/(IC50 H1975), HUVEC” value ([6]; HUVEC vs H1975) was 273.8, the IC50 ([6]; Homo sapiens, HUVEC, mean ± SE, read-out: Toxicity to normal cells, IC50 HUVEC) was 21.36 ± 0.06 µM and the “toxicity toward the nontumorigenic cell lines” value [7] was “very little apparent toxicity”. It also gave an IC50 [8] of 0.236 ± 0.027 µM, an IC50 [9] of 0.13 ± 0.015 µM and an apoptotic rate ([10]; 10 nM) of 12.7%. The apoptotic rate ([10]; 50 nM) was 26.8%, the apoptotic rate ([10]; 100 nM) was 47.67% and the “HE staining of lung and heart tissues” value [11] was “did not indicate toxicity”. For the same compound, the “expression of p-EGFR” value [12] was “inhibited”, the “expression of p-AKT” value [13] was “inhibited” and the scratch healing rate [14] was “clearly decreased”. The invasion ability [15] was “reduced its invasion ability in a concentration-dependent manner”.

From paper PMC10004195, “Novel Dual-Target Kinase Inhibitors of EGFR and ALK Were Designed, Synthesized, and Induced Cell Apoptosis in Non-Small Cell Lung Cancer” (Molecules, 2023)
